Experimental findings from ChEMBL document CHEMBL1201862, “PubChem BioAssay data set” (2004) are described below.

Among the test systems are MCF7; RXF 393; NCI-H23; HOP-92; TK-10; NCI-H460; HCT-116; HT-29; 786-0; SN12C; Hs-578T; MDA-MB-231; A549; ACHN; DU-145; IGROV-1; SF-295; PC-3; NCI-H522; K562.
Holding throughout (assay): DTP human tumour cell line panel, 48 h

Each structure is given as a SMILES string.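 Dose response: 5 concentrations. Exposure: 48 h. Format: 96-well plates. Endpoint: linear interpolation; highest concentration if not reached. GI50: concentration for 50% inhibition of growth.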 Active and inactive are the calls of the source. No stated cut-off is given here; in the data, active = GI50 up to about 1.1 µM and inactive = higher.

Broadly, the GI50 is the concentration at which growth is held to half of that of the control. For `O=C1c2cc([N+](=O)[O-])sc2C(=O)c2ccsc21`, the GI50 with MCF7 is 0.213 µM (active); with RXF 393, 0.486 µM (active); in the experiment with NCI-H23, 0.352 µM (active); in the experiment on HOP-92 it was 0.201 µM (active); with TK-10, 0.774 µM (active); in the experiment on NCI-H460, 0.306 µM (active). Moreover, the GI50 in the experiment on HCT-116 is 0.293 µM (active); with HT-29 it was 0.665 µM (active); in the experiment with 786-0, 0.449 µM (active); in the experiment on SN12C it was 0.327 µM (active); with Hs-578T, 0.618 µM (active); with MDA-MB-231, 0.266 µM (active). Further, the GI50 in the experiment on A549 is 1.83 µM (inactive); in the experiment on ACHN, 0.281 µM (active); with DU-145, 0.273 µM (active); in the experiment with IGROV-1, 0.413 µM (active); in the experiment on SF-295, 0.354 µM (active); with PC-3 it was 0.532 µM (active). Moreover, the GI50 with NCI-H522 was 0.195 µM (active); with K562 it was 0.0216 µM (active).

For the compound `Oc1c(Cl)c(Cl)c(O)c(-c2cnc(-c3ncc(-c4c(O)c(Cl)c(Cl)c(O)c4Cl)s3)s2)c1Cl`, the GI50 with MCF7 was 18.2 µM (inactive); in the experiment with RXF 393 it was 18.9 µM (inactive); with NCI-H23, 19.3 µM (inactive); in the experiment with HOP-92, 25 µM (inactive); in the experiment with TK-10, 26.7 µM (inactive); with NCI-H460, 30.1 µM (inactive). The GI50 was 21.1 µM (inactive) in the experiment on HCT-116; 35.6 µM (inactive) in the experiment with HT-29; 25.1 µM (inactive) in the experiment on 786-0; 27.4 µM (inactive) in the experiment with SN12C; 15.2 µM (inactive) in the experiment with Hs-578T; 20.7 µM (inactive) with MDA-MB-231. Moreover, the GI50 in the experiment on A549 was 29.6 µM (inactive); with ACHN, 23.3 µM (inactive); in the experiment on DU-145, 49.8 µM (inactive); with IGROV-1, 16.1 µM (inactive); in the experiment with SF-295, 19.9 µM (inactive); in the experiment with PC-3, 29.4 µM (inactive). Further, the GI50 is 2.1 µM (inactive) with NCI-H522 and 34.1 µM (inactive) in the experiment with K562.

Turning to `CCCCCC(=O)OC[n+]1ccc(-c2c(COC(=O)NC(C)C)c(COC(=O)NC(C)C)c3n2CCC3)cc1`, the GI50 in the experiment with MCF7 is 77.1 µM (inactive); with RXF 393 it was > 100 µM (inactive); in the experiment on NCI-H23 it was > 100 µM (inactive); with HOP-92, > 100 µM (inactive); with TK-10, > 100 µM (inactive); with NCI-H460 it was 72.3 µM (inactive). For the same compound, the GI50 in the experiment on HCT-116 was > 100 µM (inactive); with HT-29 it was > 100 µM (inactive); in the experiment with 786-0, > 92 µM (inactive); in the experiment with SN12C, > 100 µM (inactive); in the experiment on Hs-578T, > 100 µM (inactive); with MDA-MB-231, > 100 µM (inactive). The GI50 was > 100 µM (inactive) with A549; 50.9 µM (inactive) with ACHN; > 35.5 µM (inactive) in the experiment on DU-145; > 100 µM (inactive) in the experiment on IGROV-1; > 100 µM (inactive) in the experiment on SF-295; > 100 µM (inactive) with PC-3. Further, the GI50 with NCI-H522 and in the experiment on K562 was > 100 µM (inactive) in each case.

In the case of `COCc1cc2c(s1)C(=O)C1=C(C2=O)C2(C=C(Br)C(=O)C(Br)=C2)CCN1`, the GI50 was 10.6 µM (inactive) in the experiment on MCF7; 2.4 µM (inactive) in the experiment with RXF 393; 2.38 µM (inactive) in the experiment with NCI-H23; 4.94 µM (inactive) with HOP-92; 18.2 µM (inactive) in the experiment with TK-10; 3.58 µM (inactive) with NCI-H460. Moreover, the GI50 was 1.41 µM (inactive) in the experiment on HCT-116; 3.09 µM (inactive) with HT-29; 4.88 µM (inactive) with 786-0; 8.15 µM (inactive) with SN12C; 9.53 µM (inactive) in the experiment on Hs-578T; 3.04 µM (inactive) in the experiment on MDA-MB-231. For the same compound, the GI50 with A549 was 6.53 µM (inactive); with ACHN, 4.98 µM (inactive); with DU-145, 16 µM (inactive); with IGROV-1 it was 7.24 µM (inactive); with SF-295 it was 6.05 µM (inactive); in the experiment on PC-3, 3.15 µM (inactive). Also, the GI50 with NCI-H522 was 2.39 µM (inactive); in the experiment on K562, 2.11 µM (inactive).

`CC(C)(C)[Si](C)(C)OCC1OC(n2cnc3c(=O)[nH]cnc32)CC1O` (stereo not given): the GI50 in the experiment with MCF7, with RXF 393, in the experiment on NCI-H23, in the experiment on HOP-92, with TK-10 and in the experiment on NCI-H460 was > 100 µM (inactive) each time. Besides, the GI50 in the experiment on HCT-116, in the experiment on HT-29, in the experiment on 786-0, in the experiment on SN12C, in the experiment on Hs-578T and in the experiment on MDA-MB-231 was > 100 µM (inactive) throughout. Further, the GI50 in the experiment on A549, with ACHN, in the experiment with DU-145, in the experiment on IGROV-1, in the experiment with SF-295 and with PC-3 was > 100 µM (inactive) in each case. Moreover, the GI50 with NCI-H522 and with K562 was > 100 µM (inactive) each time.

With `CCOC(=O)C12CC(C)=C(C)CC1CCCc1ccccc12` (stereo not given), the GI50 in the experiment on MCF7 was 17 µM (inactive); with RXF 393 it was 18.7 µM (inactive); in the experiment on NCI-H23 it was 28.4 µM (inactive); in the experiment on HOP-92 it was 13.5 µM (inactive); in the experiment on TK-10 it was 27 µM (inactive); with NCI-H460, 16.4 µM (inactive). The GI50 in the experiment on HCT-116 was 14.7 µM (inactive); in the experiment with HT-29, 16.9 µM (inactive); in the experiment on 786-0, 31.5 µM (inactive); in the experiment with SN12C, 23.4 µM (inactive); in the experiment on Hs-578T it was 36.1 µM (inactive); in the experiment on MDA-MB-231, 14.2 µM (inactive). For the same compound, the GI50 is 32.7 µM (inactive) with A549; 18.8 µM (inactive) with ACHN; 34 µM (inactive) with DU-145; 26.4 µM (inactive) in the experiment with IGROV-1; 25.1 µM (inactive) in the experiment on SF-295; 18.1 µM (inactive) in the experiment with PC-3. Also, the GI50 is 17.6 µM (inactive) in the experiment with NCI-H522 and 21.2 µM (inactive) with K562.

As to `CCN(CC)CCNc1ccc2ncn3c4ccc(O)cc4c(=O)c1c23`, the GI50 is 0.15 µM (active) in the experiment with MCF7; 0.178 µM (active) in the experiment on RXF 393; 0.194 µM (active) in the experiment with NCI-H23; 0.434 µM (active) in the experiment on HOP-92; 3.2 µM (inactive) in the experiment on TK-10; 0.0291 µM (active) in the experiment with NCI-H460. For the same compound, the GI50 is 0.212 µM (active) in the experiment with HCT-116; 0.679 µM (active) in the experiment with HT-29; 0.459 µM (active) with 786-0; 0.22 µM (active) in the experiment on SN12C; 3.11 µM (inactive) in the experiment with Hs-578T; 1.65 µM (inactive) in the experiment with MDA-MB-231. The GI50 in the experiment with A549 is 0.0248 µM (active); in the experiment on ACHN, 0.0499 µM (active); with DU-145, 0.315 µM (active); with IGROV-1 it was 0.479 µM (active); with SF-295, 0.216 µM (active); with PC-3, 1.49 µM (inactive). The 50% growth inhibitory concentration (GI50) in the experiment with NCI-H522 was 0.458 µM (active); in the experiment on K562 it was 1.04 µM (active).

On to `COC(=O)C(CCC1CC(OC)N(C(=O)OCc2ccccc2)C1)/N=C/c1ccccc1` (stereo not given), for which the GI50 was 60 µM (inactive) in the experiment with MCF7; > 100 µM (inactive) in the experiment with RXF 393; 76 µM (inactive) in the experiment on NCI-H23; 59.4 µM (inactive) with HOP-92; 98.6 µM (inactive) with TK-10; 78.3 µM (inactive) with NCI-H460. The GI50 with HCT-116 is 55.3 µM (inactive); with HT-29 it was 60.5 µM (inactive); in the experiment with 786-0 it was > 100 µM (inactive); in the experiment on SN12C, > 100 µM (inactive); with Hs-578T, > 100 µM (inactive); in the experiment on MDA-MB-231 it was 47 µM (inactive). Besides, the GI50 in the experiment on A549 is 83 µM (inactive); in the experiment on ACHN, > 100 µM (inactive); in the experiment with DU-145, > 100 µM (inactive); in the experiment with IGROV-1, 87.9 µM (inactive); in the experiment on SF-295, > 100 µM (inactive); in the experiment on PC-3, 45.1 µM (inactive). The GI50 was 30.6 µM (inactive) in the experiment on NCI-H522 and 45.2 µM (inactive) in the experiment with K562.

For `COc1ccc2nc3c([N+](=O)[O-])ccc4c3c(c2c1)N(CCCN(C)C)C(=S)N4CCCN(C)C`, the GI50 is 5.07 µM (inactive) in the experiment with MCF7; 9.53 µM (inactive) in the experiment on RXF 393; 8.97 µM (inactive) in the experiment with NCI-H23; 4.79 µM (inactive) with HOP-92; 7.4 µM (inactive) in the experiment on TK-10; 2.7 µM (inactive) in the experiment on NCI-H460. In addition, the GI50 in the experiment with HCT-116 is 2.1 µM (inactive); in the experiment with HT-29, 2.22 µM (inactive); in the experiment with 786-0 it was 2.78 µM (inactive); in the experiment on SN12C, 5.11 µM (inactive); in the experiment on Hs-578T it was 7.94 µM (inactive); with MDA-MB-231, 7.28 µM (inactive). Moreover, the GI50 is 5.45 µM (inactive) in the experiment on A549; 4.1 µM (inactive) in the experiment with ACHN; 5.16 µM (inactive) with DU-145; 2.97 µM (inactive) in the experiment on IGROV-1; 4.6 µM (inactive) in the experiment on SF-295; 3.73 µM (inactive) in the experiment with PC-3. The GI50 in the experiment on NCI-H522 is 1.53 µM (inactive); with K562, 1.77 µM (inactive).

On to `C/C(=N\c1cccc(Cl)c1)c1ccncc1`, for which the GI50 in the experiment on MCF7, with RXF 393, with NCI-H23, in the experiment on HOP-92, in the experiment with TK-10 and with NCI-H460 was > 100 µM (inactive) each time. The GI50 in the experiment on HCT-116, with HT-29, with 786-0, in the experiment on SN12C, in the experiment with Hs-578T and in the experiment with MDA-MB-231 was > 100 µM (inactive) in each case. In addition, the GI50 in the experiment on A549, in the experiment on ACHN, with DU-145, with IGROV-1, with SF-295 and in the experiment with PC-3 was > 100 µM (inactive) throughout. Further, the GI50 with NCI-H522 and in the experiment on K562 was > 100 µM (inactive) throughout.
